The record followed here is ChEMBL document CHEMBL1148617, “Design, synthesis, and structure-activity relationships of 1-,3-,8-, and 9-substituted-9-deazaxanthines at the human A2B adenosine receptor” (J Med Chem, 2006).

A word on the inhibition: it is the share of the control response that was lost under treatment. As a reminder, the Ki is the dissociation constant of the complex between target and ligand, obtained from inhibition or displacement. Read a high Ki as weaker binding.

In assay [1] the target is T1, Adenosine receptor A2a (Homo sapiens, UniProt P29274). As to the kind of experiment: Displacement of [3H]ZM-241385 from recombinant human adenosine A2A receptor expressed in HeLa cells at 0.1 uM.
T1 sequence (P29274 whole entry): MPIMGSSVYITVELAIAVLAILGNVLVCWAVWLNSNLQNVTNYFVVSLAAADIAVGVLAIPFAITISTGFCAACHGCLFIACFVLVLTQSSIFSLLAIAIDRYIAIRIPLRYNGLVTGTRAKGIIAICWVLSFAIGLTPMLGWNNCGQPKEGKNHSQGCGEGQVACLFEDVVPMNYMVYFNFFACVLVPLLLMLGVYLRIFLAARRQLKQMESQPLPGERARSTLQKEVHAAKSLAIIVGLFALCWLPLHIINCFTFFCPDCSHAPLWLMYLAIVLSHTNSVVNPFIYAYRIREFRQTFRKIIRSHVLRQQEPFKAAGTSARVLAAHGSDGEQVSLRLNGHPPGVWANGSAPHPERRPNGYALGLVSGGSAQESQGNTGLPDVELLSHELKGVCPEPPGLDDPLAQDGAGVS
Assay [2] concerns the target T2, Adenosine receptor A2b (Homo sapiens) (UniProt P29275).
T2 sequence (whole entry): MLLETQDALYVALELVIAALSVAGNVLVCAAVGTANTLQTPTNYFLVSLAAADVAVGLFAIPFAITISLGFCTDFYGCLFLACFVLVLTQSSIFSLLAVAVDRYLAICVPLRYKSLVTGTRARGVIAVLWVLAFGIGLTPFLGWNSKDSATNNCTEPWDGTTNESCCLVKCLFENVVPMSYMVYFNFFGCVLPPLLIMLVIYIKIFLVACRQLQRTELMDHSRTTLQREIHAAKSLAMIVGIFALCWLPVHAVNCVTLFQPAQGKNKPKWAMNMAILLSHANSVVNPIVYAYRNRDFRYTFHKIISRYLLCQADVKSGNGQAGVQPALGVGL
The assay is described as follows: Displacement of [3H]DPCPX from recombinant human adenosine A2B receptor expressed in HEK293 cells at 0.1 uM. The class given is cell-based. Background: Loss of bound radioactivity is the signal in a displacement assay; it reports binding, not function.

Another assay has as its target T3, Adenosine receptor A2b (Homo sapiens, UniProt P29275).
T3 sequence (P29275 whole entry): T2 sequence (whole entry)

The target in assay [3] is T1, Adenosine receptor A2a.
Description: Binding affinity to recombinant human adenosine A2A receptor
Assay [4] deals with T2, Adenosine receptor A2b (Homo sapiens). As to the kind of experiment: Displacement of [3H]DPCPX from recombinant human adenosine A2B receptor expressed in HEK293 cells at 0.01 uM.

On to `CCCn1c(=O)c2[nH]c(-c3ccc(OC(C)(C)C(=O)Nc4ccccc4)cc3)cc2n(CCC)c1=O`, for which the inhibition on Adenosine receptor A2a [1] turned out to be 57%; in assay [2], 93%; in assay [4], 51%. Besides, the Ki at Adenosine receptor A2b is 0.00794 µM; on Adenosine receptor A2a [3] it was 0.0537 µM.
The corresponding values for `CCCn1c(=O)c2[nH]c(-c3ccc(OCC(=O)Nc4ccc(Cl)cc4)cc3)cc2n(CCC)c1=O` are 61%, 95%, 58%, 0.00316 µM and 0.0316 µM.
Take `Cn1c(=O)c2[nH]c(-c3ccc(OCC(=O)Nc4ccc(CCN)cc4)cc3)cc2n(C)c1=O`: the values for the inhibition (on Adenosine receptor A2a [1]; in assay [2]; in assay [4]) were 38%, 34% and 7%, respectively. The Ki on Adenosine receptor A2b is 0.186 µM; on Adenosine receptor A2a [3], 0.166 µM.
Take `CCCn1c(=O)c2[nH]c(-c3ccc(OCC(=O)Nc4ccc(Cl)cc4)cc3)c(Cl)c2n(CCC)c1=O`: the inhibition on Adenosine receptor A2a [1] amounted to 28%; in assay [2], 80%; in assay [4] it was 17%. The inhibitory constant (Ki) on Adenosine receptor A2b is 0.0229 µM; at Adenosine receptor A2a [3] it was 0.0891 µM.
Regarding `CCCn1c(=O)c2[nH]c(-c3ccc(OCC(=O)Nc4ccc(CC(=O)O)cc4)cc3)cc2n(CCC)c1=O`, the inhibition on Adenosine receptor A2a [1] came out at 28%; in assay [2], 87%; in assay [4], 14%. The values for the Ki on Adenosine receptor A2b and at Adenosine receptor A2a [3] were 0.0339 µM and 0.224 µM, respectively.
The corresponding values for `CCCn1c(=O)c2[nH]c(-c3ccc(OCC(=O)Nc4ccc(F)cc4)cc3)cc2n(CCC)c1=O` are 62%, 96%, 70%, 0.00331 µM and 0.012 µM.
For `CCn1c(=O)c2[nH]c(-c3ccc(OCC(=O)Nc4ccccc4)cc3)cc2n(CC)c1=O`, the inhibition at Adenosine receptor A2a [1] came out at 22%; in assay [2] it was 91%; in assay [4], 45%. The Ki at Adenosine receptor A2b was 0.00776 µM; at Adenosine receptor A2a [3], 0.186 µM.
For `CCCn1c(=O)c2[nH]c(-c3ccc(OCC(=O)Nc4ccc(C)cn4)cc3)cc2n(CCC)c1=O`, the inhibition on Adenosine receptor A2a [1] came out at 29%; in assay [2], 85%; in assay [4], 40%. Moreover, the Ki on Adenosine receptor A2b was 0.0126 µM; at Adenosine receptor A2a [3] it was 0.275 µM.
The corresponding values for `CCN(Cc1ccccc1)C(=O)COc1ccc(-c2cc3c([nH]2)c(=O)n(C)c(=O)n3C)cc1` are 17%, 59%, 15%, 0.0427 µM and 0.891 µM.
In the case of `CCCn1c(=O)c2[nH]c(-c3ccc(OCC(=O)Nc4ccc(CS(=O)(=O)N5CCCC5)cc4)cc3)cc2n(CCC)c1=O`, the inhibition at Adenosine receptor A2a [1] came out at 31%; in assay [2], 70%; in assay [4], 58%. The results for the Ki on Adenosine receptor A2b and on Adenosine receptor A2a [3] were 0.00776 µM and 0.0525 µM, respectively.
As for `CCCn1c(=O)c2[nH]c(-c3ccc(OCC(=O)Nc4ccc(S(=O)(=O)c5ccccc5)cc4)cc3)cc2n(CCC)c1=O`, the inhibition worked out at 27% at Adenosine receptor A2a [1], 85% in assay [2] and 10% in assay [4]. In addition, the Ki at Adenosine receptor A2b is 0.0174 µM; at Adenosine receptor A2a [3], 0.282 µM.
`CC(NC(=O)COc1ccc(-c2cc3c([nH]2)c(=O)n(C)c(=O)n3C)cc1)c1ccccc1` (stereo unspecified): the inhibition on Adenosine receptor A2a [1] is 13%; in assay [2], 63%; in assay [4] it was 20%. In addition, the Ki on Adenosine receptor A2b was 0.0275 µM; at Adenosine receptor A2a [3] it was 0.245 µM.
`CCCn1c(=O)c2[nH]c(-c3ccc(OCC(=O)Nc4ccc(F)cc4)cc3)c(Cl)c2n(CCC)c1=O`: the inhibition on Adenosine receptor A2a [1] stood at 54%; in assay [2], 69%; in assay [4], 10%. In addition, the Ki on Adenosine receptor A2b was 0.0275 µM; at Adenosine receptor A2a [3] it was 0.0407 µM.
Take `CCCn1c(=O)c2[nH]c(-c3ccc(OCC(=O)c4c(NC(=O)O)n(C)c(=O)n(C)c4=O)cc3)cc2n(CCC)c1=O`: the inhibition at Adenosine receptor A2a [1] was found to be 61%; in assay [2] it was 59%; in assay [4], 24%. The results for the Ki on Adenosine receptor A2b and on Adenosine receptor A2a [3] were 0.1 µM and 0.0794 µM, respectively.
In the case of `CCCn1c(=O)c2[nH]c(-c3ccc(OC(CC)C(=O)Nc4ccccc4)cc3)cc2n(CCC)c1=O` (stereo unspecified), the inhibition worked out at 88% on Adenosine receptor A2a [1], 93% in assay [2] and 48% in assay [4]. Also, the Ki was 0.00977 µM at Adenosine receptor A2b and 0.0257 µM on Adenosine receptor A2a [3].
As to `CCCn1c(=O)c2[nH]c(-c3ccc(OCC(=O)Nc4ccc(C=O)cc4)cc3)cc2n(CCC)c1=O`, the inhibition came out at 13% on Adenosine receptor A2a [1], 67% in assay [2] and 13% in assay [4]. Moreover, the Ki on Adenosine receptor A2b is 0.0631 µM; at Adenosine receptor A2a [3], 0.49 µM.
Take `CCCn1c(=O)c2[nH]c(-c3ccc(OCC(=O)Nc4ccccc4)cc3)c(Cl)c2n(CCC)c1=O`: the inhibition at Adenosine receptor A2a [1] turned out to be 37%; in assay [2] it was 57%; in assay [4], 11%. Also, the Ki at Adenosine receptor A2b is 0.0372 µM; on Adenosine receptor A2a [3], 0.0741 µM.
As for `CCCn1c(=O)c2[nH]c(-c3ccc(OCC(=O)NCc4ccncc4)cc3)cc2n(CCC)c1=O`, the figures for the inhibition (at Adenosine receptor A2a [1]; in assay [2]; in assay [4]) were 18%, 76% and 21%, respectively. For the same compound, the Ki was 0.0282 µM on Adenosine receptor A2b and 0.302 µM at Adenosine receptor A2a [3].
For the compound `COc1cc(-c2cc3c([nH]2)c(=O)n(C)c(=O)n3C)ccc1OCC(=O)Nc1ccc(F)cc1`, the figures for the inhibition (at Adenosine receptor A2a [1]; in assay [2]; in assay [4]) were 35%, 45% and 10%, respectively. The Ki was 0.145 µM on Adenosine receptor A2b and 0.0457 µM on Adenosine receptor A2a [3].
Regarding `CCCn1c(=O)c2[nH]c(-c3ccc(OC(CC)C(=O)Nc4ccc(F)cc4)cc3)cc2n(CCC)c1=O` (stereo unspecified), the inhibition at Adenosine receptor A2a [1] was found to be 88%; in assay [2] it was 100%; in assay [4], 68%. In addition, the inhibition constant (Ki) on Adenosine receptor A2b is 0.00479 µM; at Adenosine receptor A2a [3] it was 0.0191 µM.
Take `CCCn1c(=O)c2[nH]c(-c3ccc(OCC(=O)Nc4ccc(C(=O)OCC)cc4)cc3)cc2n(CCC)c1=O`: the values for the inhibition (at Adenosine receptor A2a [1]; in assay [2]; in assay [4]) were 30%, 57% and 6%, respectively. In addition, the inhibitory constant (Ki) at Adenosine receptor A2b was 0.0562 µM; at Adenosine receptor A2a [3] it was 0.1 µM.
Consider `CCCn1c(=O)c2[nH]c(-c3ccc(OCC(=O)Nc4ccccc4O)cc3)cc2n(CCC)c1=O`, for which the inhibition on Adenosine receptor A2a [1] came out at 82%; in assay [2] it was 74%; in assay [4] it was 56%. For the same compound, the Ki is 0.0191 µM on Adenosine receptor A2b and 0.0324 µM at Adenosine receptor A2a [3].
Take `CCCn1c(=O)c2[nH]c(-c3ccc(OCC(=O)Nc4ncccc4O)cc3)cc2n(CCC)c1=O`: the inhibition at Adenosine receptor A2a [1] turned out to be 32%; in assay [2] it was 82%; in assay [4], 37%. For the same compound, the values for the Ki on Adenosine receptor A2b and at Adenosine receptor A2a [3] were 0.0209 µM and 0.324 µM, respectively.
The corresponding values for `Cn1c(=O)c2[nH]c(-c3ccc(OCC(=O)NC4CCCC4)cc3)cc2n(C)c1=O` are 8%, 57%, 20%, 0.0794 µM and 0.692 µM.
On to `COc1cccc(CNC(=O)COc2ccc(-c3cc4c([nH]3)c(=O)n(C)c(=O)n4C)cc2)c1`, for which the inhibition on Adenosine receptor A2a [1] came out at 11%; in assay [2], 61%; in assay [4] it was 15%. Besides, the values for the Ki at Adenosine receptor A2b and at Adenosine receptor A2a [3] were 0.0513 µM and 0.331 µM, respectively.
The corresponding values for `CCCn1c(=O)c2[nH]c(-c3ccc(OCC(=O)Nc4ccc(CC(=O)OCC)cc4)cc3)cc2n(CCC)c1=O` are 10%, 58%, 32%, 0.0603 µM and 0.24 µM.
For `CCn1c(=O)c2[nH]c(-c3ccc(OCC(=O)Nc4ccc(C#N)cc4)cc3)cc2n(CC)c1=O` the same measures were 2%, 79%, 20%, 0.0135 µM and 0.12 µM.
In the case of `CCCn1c(=O)c2[nH]c(-c3ccc(OCC(=O)c4c(NC(=O)O)[nH]c(=O)n(C)c4=O)cc3)cc2n(CCC)c1=O`, the inhibition on Adenosine receptor A2a [1] is 76%; in assay [2] it was 66%; in assay [4] it was 21%. The Ki at Adenosine receptor A2b was 0.0219 µM; at Adenosine receptor A2a [3], 0.0158 µM.
With `CCOC(=O)COc1ccc(-c2cc3c([nH]2)c(=O)n(CC)c(=O)n3CCCOC)cc1`, the values for the inhibition (on Adenosine receptor A2a [1]; in assay [2]) were 16% and 57%, respectively. The inhibitory constant (Ki) at Adenosine receptor A2b was 0.0661 µM; on Adenosine receptor A2a [3], 0.447 µM.
Regarding `CCCn1c(=O)c2[nH]c(-c3ccc(OCC(=O)O)cc3)cc2n(C)c1=O`, the results for the inhibition (on Adenosine receptor A2a [1]; in assay [2]) were 21% and 63%, respectively. The inhibition constant Ki at Adenosine receptor A2b is 0.0437 µM; at Adenosine receptor A2a [3], 4.07 µM.
As to `CCOC(=O)COc1ccc(-c2cc3c([nH]2)c(=O)n(C)c(=O)n3C)cc1`, the inhibition came out at 10% on Adenosine receptor A2a [1] and 25% in assay [2]. In addition, the results for the Ki on Adenosine receptor A2b and at Adenosine receptor A2a [3] were 0.288 µM and 1.95 µM, respectively.
`Cn1c(=O)c2[nH]c(-c3ccc(OCC(=O)O)cc3)cc2n(C)c1=O`: the values for the inhibition (on Adenosine receptor A2a [1]; in assay [2]) were 14% and 47%, respectively. Further, the Ki at Adenosine receptor A2b is 0.123 µM; at Adenosine receptor A2a [3] it was 4.17 µM.
